From patent US5013743A, “Selective antibacterial agent against campytobacter” (Takeda Chemical Industries, Ltd., priority 1989, dated 1991)
Converted amounts (≈) assume the structure as drawn.

Experiments:
C. pylori NCTC 11916 = assay: MIC, agar-plate dilution method, test strain A; assay type: cell-based; conditions: Helicobacter pylori, NCTC11916, 72 h, Brucella agar, 37° C., 3 days
Procedure: (§1) The minimum inhibitory concentration (MIC) of each compound was determined by the agar-plate dilution method based on the standard method advocated by Japan Society of Chemotherapy [cf: Chemotherapy, Jan. '81, p. 76]. The volume of agar medium per plate was 20 ml. Each of the test compounds was dissolved in dimethylsulfoxide at a concentration of 80 mg/ml or 40 mg/ml, and diluted 10 times with sterile distilled water. Furthermore, the aqueous solution of 8 mg/ml or 4 mg/ml was diluted serially 2-fold with sterile distilled water. To 2 ml of the diluted solution was added 18 ml of Brucella agar (BBL Microbiology Systems, Becton Dickinson and Co., Cockeysville, Md. 21030) containing 7% defibrinated horse blood (manufactured by Nippon Bio-supp. Center) and mixed well. Test strains frozen at -80° C. in Brucella broth (BBL) containing 10% horse serum were thawed and inoculated on a Brucella agar slant medium containing 7% defibrinated horse blood. The medium was incubated anaerobically at 37° C. for 3 days in a jar containing a piece of sponge sufficiently impregnated with water and Campy Pak™ (BBL). The organisms grown on the slant medium were collected and suspended in a Brucella broth to correspond to the turbidity of about 10^8 CFU/ml of common bacteria. One platinum loop of inoculum was streaked on the medium plates for determination. The plates were incubated under the same conditions as described above.

C. pylori NCTC 11637 = assay: MIC, agar-plate dilution method, test strain B; assay type: cell-based; conditions: Helicobacter pylori, NCTC11637, 72 h, Brucella agar, 37° C., 3 days
Procedure: as §1

C. pylori PCL 56 = assay: MIC, agar-plate dilution method, test strain C; assay type: cell-based; conditions: Helicobacter pylori, PCL56, 72 h, Brucella agar, 37° C., 3 days
Procedure: as §1, with “above. […] The results are shown in Table 2 and Table 3. | C: C. pylori PCL 56” for “above.”

C. pylori CPY 00111 = assay: MIC, agar-plate dilution method, test strain D; assay type: cell-based; conditions: Helicobacter pylori, CPY00111, 72 h, Brucella agar, 37° C., 3 days
Procedure: as §1

C. pylori KS 13 = assay: MIC, agar-plate dilution method, test strain E; assay type: cell-based; conditions: Helicobacter pylori, KS13, 72 h, Brucella agar, 37° C., 3 days
Procedure: as §1

C. pylori CLO 1 = assay: MIC, agar-plate dilution method, test strain F; assay type: cell-based; conditions: Helicobacter pylori, CLO1, 72 h, Brucella agar, 37° C., 3 days
Procedure: as §1

C. pylori CLO 6 = assay: MIC, agar-plate dilution method, test strain G; assay type: cell-based; conditions: Helicobacter pylori, CLO6, 72 h, Brucella agar, 37° C., 3 days
Procedure: as §1

genus Campylobacter = assay: Antibacterial activity against the genus Campylobacter (Tables 2 and 3, summary in words); assay type: cell-based, Campylobacter pylori; conditions: fluorinated alkyl derivatives vs other derivatives, Table 2 and Table 3
Procedure: as §1

Row | SMILES | MIC (C. pylori NCTC 11916) | MIC (C. pylori NCTC 11637) | MIC (C. pylori PCL 56) | MIC (C. pylori CPY 00111) | MIC (C. pylori KS 13) | MIC (C. pylori CLO 1) | MIC (C. pylori CLO 6) | antibacterial activity compared with other derivatives (genus Campylobacter)
1 | Cc1c(OCC(F)(F)C(F)(F)F)ccnc1C[S+]([O-])c1nc2ccccc2[nH]1 (stereo not shown) [Compound 3] | 3.13 µg/mL (≈ 7.46 µM) | 6.25 µg/mL (≈ 14.9 µM) | 3.13 µg/mL (≈ 7.46 µM) | 3.13 µg/mL (≈ 7.46 µM) | 3.13 µg/mL (≈ 7.46 µM) | 1.56 µg/mL (≈ 3.72 µM) | 6.25 µg/mL (≈ 14.9 µM) | stronger antibacterial activity
2 | Cc1c(OCC(F)(F)C(F)F)ccnc1C[S+]([O-])c1nc2ccccc2[nH]1 (stereo not shown) [Compound 4] | 1.56 µg/mL (≈ 3.89 µM) | 6.25 µg/mL (≈ 15.6 µM) | 6.25 µg/mL (≈ 15.6 µM) | 1.56 µg/mL (≈ 3.89 µM) | 1.56 µg/mL (≈ 3.89 µM) | 0.78 µg/mL (≈ 1.94 µM) | 6.25 µg/mL (≈ 15.6 µM) | stronger antibacterial activity
3 | CC(C)COc1ccnc(CSc2nc3ccccc3[nH]2)c1 [Compound 7] | 12.5 µg/mL (≈ 39.9 µM) | 12.5 µg/mL (≈ 39.9 µM) | 12.5 µg/mL (≈ 39.9 µM) | 12.5 µg/mL (≈ 39.9 µM) | 12.5 µg/mL (≈ 39.9 µM) | 12.5 µg/mL (≈ 39.9 µM) | 12.5 µg/mL (≈ 39.9 µM) | 
4 | CC(C)COc1ccnc(CSc2nc3cc(C(F)(F)F)ccc3[nH]2)c1 [Compound 8] | 12.5 µg/mL (≈ 32.8 µM) | 12.5 µg/mL (≈ 32.8 µM) | 12.5 µg/mL (≈ 32.8 µM) | 12.5 µg/mL (≈ 32.8 µM) | 12.5 µg/mL (≈ 32.8 µM) | 12.5 µg/mL (≈ 32.8 µM) | 12.5 µg/mL (≈ 32.8 µM) | 
5 | CC(C)Oc1ccnc(CSc2nc3cc(C(F)(F)F)ccc3[nH]2)c1 [Compound 9] | 12.5 µg/mL (≈ 34 µM) | 12.5 µg/mL (≈ 34 µM) | 12.5 µg/mL (≈ 34 µM) | 12.5 µg/mL (≈ 34 µM) | 12.5 µg/mL (≈ 34 µM) | 12.5 µg/mL (≈ 34 µM) | 12.5 µg/mL (≈ 34 µM) | 
6 | C=CCOc1ccnc(CSc2nc3cc(C(F)(F)F)ccc3[nH]2)c1 [Compound 10] | 25 µg/mL (≈ 68.4 µM) | 25 µg/mL (≈ 68.4 µM) | 25 µg/mL (≈ 68.4 µM) | 25 µg/mL (≈ 68.4 µM) | 25 µg/mL (≈ 68.4 µM) | 25 µg/mL (≈ 68.4 µM) | 25 µg/mL (≈ 68.4 µM) | 
7 | C#CCOc1ccnc(CSc2nc3cc(C(F)(F)F)ccc3[nH]2)c1 [Compound 11] | 12.5 µg/mL (≈ 34.4 µM) | 12.5 µg/mL (≈ 34.4 µM) | 12.5 µg/mL (≈ 34.4 µM) | 12.5 µg/mL (≈ 34.4 µM) | 12.5 µg/mL (≈ 34.4 µM) | 12.5 µg/mL (≈ 34.4 µM) | 12.5 µg/mL (≈ 34.4 µM) | 
8 | Cc1c(OCC(F)(F)C(F)F)ccnc1CSc1nc2ccccc2[nH]1 [Compound 12] | 1.56 µg/mL (≈ 4.05 µM) | 0.78 µg/mL (≈ 2.02 µM) | 1.56 µg/mL (≈ 4.05 µM) | 1.56 µg/mL (≈ 4.05 µM) | 1.56 µg/mL (≈ 4.05 µM) | 1.56 µg/mL (≈ 4.05 µM) | 0.78 µg/mL (≈ 2.02 µM) | stronger antibacterial activity
9 | Cc1c(OCC(F)(F)C(F)(F)F)ccnc1CSc1nc2ccccc2[nH]1 [Compound 13] | 1.56 µg/mL (≈ 3.87 µM) | 1.56 µg/mL (≈ 3.87 µM) | 1.56 µg/mL (≈ 3.87 µM) | 1.56 µg/mL (≈ 3.87 µM) | 1.56 µg/mL (≈ 3.87 µM) | 1.56 µg/mL (≈ 3.87 µM) | 1.56 µg/mL (≈ 3.87 µM) | stronger antibacterial activity
